≈ marks a conversion by molar mass, not a printed value. Read-outs that look alike come from different tables or passages of the source.
Assays:
[1] = tested on: A549 (adenocarcinomic human alveolar basal epithelial cells); test: SRB cytotoxicity assay, A549; conditions: A549, 72 h
[2] = tested on: Staphylococcus lugdunensis; test: MIC, broth micro dilution method; format: cell-based; conditions: clinical isolate; for MIC: Staphylococcus lugdunensis, strain NTUH-4179, methicillin-resistant
H1975 cells = test: Double thymidine block, S phase progression by flow cytometry; format: cell-based, human; conditions: H1975, release from double thymidine block
Method: To evaluate the effects of compound Ion a single round of DNA replication in a cell cycle, H1975 cells were synchronized using a double thymidine block followed by release with DMSO or compound 1-containing medium for 2 to 14 hours. Exemplary results are shown in Panel (C) of FIG. 2. H1975 cells were grown to 60-70% confluence. Then, 2 mM thymidine (Sigma) was added to the cells and incubated for 17 hours. The cells were then washed, and fresh serum-containing medium was added. After 10 hours, thymidine was added again, and the cells were incubated for 17 hours; the cells were then washed with PBS, replaced with fresh serum-containing medium, and the data were collected at the indicated time points. Through flow cytometry analysis, the control cells were observed as synchronized in the G0-G1 phase from 0 hours, increased in the S phase from 4 to 6 hours, and finally progressed to the G2 phase after 8 hours. However, many of the compound 1-treated cells remained in the S phase at all time points. (Panel (C) of FIG. 2). A double thymidine block was performed and the data were collected at the indicated time points. Compared to DMSO, compound 1-treated H1975 cells required more time for the S phase (approximately 4 hours).

[3] = tested on: Staphylococcus haemolyticus; test: MIC, broth micro dilution method; format: cell-based
[4] = tested on: HS68 (human foreskin fibroblast cells, used as normal cells); test: SRB cytotoxicity assay, HS68 normal cells; conditions: Hs68, 72 h
[5] = tested on: Breast Cancer Cells (MDA-MB231); test: Cell viability by Cell-TiterGlo; format: cell-based; conditions: Homo sapiens, MDA-MB-231, 48 h, two days, read-out: % of the activities in the presence of ~10 μM compound, Breast Cancer Cells (MDA-MB231)
Method: (§1) Compound 1 and its analogues shown in Table 6 below were tested for their activities on cancer cells and bacterial cells using assays described herein. H1975, MDA-MB231, and MCF7 cells were incubated in the presence of the compounds in cell growth medium containing 10% fetal bovine serum for two days in a mammalian cell culture incubatoe. Cell viability were monitored by using Cell-TiterGlo. Staphylococcus aureus and Escherichia coli were incubated in the presence of the compounds in Muller-Hinton broth for 16-24 hours in a 37° C. incubator. Bacterial growth was monitored by using Alamar Blue (Invitrogen).

[6] = tested on: Breast Cancer Cells (MCF); test: Cell viability by Cell-TiterGlo; format: cell-based; conditions: Homo sapiens, 48 h, two days, read-out: % of the activities in the presence of ~10 μM compound, Breast Cancer Cells (MCF)
Method: as §1

[7] = tested on: Lung Cancer Cells (H1975); test: Cell viability by Cell-TiterGlo; format: cell-based; conditions: Homo sapiens, NCI-H1975, 48 h, two days, read-out: % of the activities in the presence of ~10 μM compound, Lung Cancer Cells (H1975)
Method: as §1

[8] = tested on: Streptococcus gallolyticus subsp. pasteurianus; test: MIC, broth micro dilution method; format: cell-based; conditions: strain ATCC43144, S. bovis
[9] = tested on: PC9/IR (human lung adenocarcinoma cells, EGFR del 19 mutation but resistant to gefitinib); test: SRB cytotoxicity assay, PC9/IR; conditions: 72 h
MCM2 = target: T1, MCM2 (Homo sapiens, UniProt P49736); test: Chromatin-bound MCM2 after double thymidine block (immunoblotting); format: cell-based; conditions: H1975, 4.5 hour, 6 hour and 9 hour treatment
T1 construct: The MCM2 proteins were pulled down by incubating the H1975 lysate with compound 1-conjugated magnetic beads; endogenous in cells; host or cells: H1975
T1 sequence (P49736 whole entry): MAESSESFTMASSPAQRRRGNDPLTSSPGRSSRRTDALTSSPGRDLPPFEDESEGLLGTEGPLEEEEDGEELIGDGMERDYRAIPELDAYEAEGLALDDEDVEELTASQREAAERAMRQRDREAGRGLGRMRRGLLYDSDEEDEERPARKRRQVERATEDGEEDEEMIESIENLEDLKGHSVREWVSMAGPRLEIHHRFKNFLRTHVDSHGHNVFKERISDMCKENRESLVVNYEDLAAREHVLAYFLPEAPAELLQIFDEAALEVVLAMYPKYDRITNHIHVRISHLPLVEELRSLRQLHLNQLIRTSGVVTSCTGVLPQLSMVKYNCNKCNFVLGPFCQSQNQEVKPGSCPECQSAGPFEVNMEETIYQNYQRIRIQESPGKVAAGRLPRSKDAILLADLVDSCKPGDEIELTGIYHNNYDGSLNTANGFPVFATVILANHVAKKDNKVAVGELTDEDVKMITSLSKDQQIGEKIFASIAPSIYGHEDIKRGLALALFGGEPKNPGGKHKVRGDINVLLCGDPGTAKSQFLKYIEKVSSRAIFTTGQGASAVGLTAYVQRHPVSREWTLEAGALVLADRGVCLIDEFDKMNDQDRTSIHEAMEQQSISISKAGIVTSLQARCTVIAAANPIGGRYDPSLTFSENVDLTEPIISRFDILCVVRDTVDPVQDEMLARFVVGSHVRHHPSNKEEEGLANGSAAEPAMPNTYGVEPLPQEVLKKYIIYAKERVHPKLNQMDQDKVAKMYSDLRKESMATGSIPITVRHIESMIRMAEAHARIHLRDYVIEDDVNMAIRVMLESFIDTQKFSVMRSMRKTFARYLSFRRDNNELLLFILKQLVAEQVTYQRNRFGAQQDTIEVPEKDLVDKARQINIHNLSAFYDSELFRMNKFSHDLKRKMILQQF
Method: To explore whether Compound 1-induced protein degradation also interfered with the DNA binding ability of MCM2, HI 975 cells were synchronized using a double thymidine block followed by release with DMSO or compound 1 treatment for 3 to 9 hours. Exemplary results are shown in Panel (D) of FIG. 3. Then, the cells were harvested to obtain the chromatin-bound fraction, and MCM2 was detected by immunoblotting.

Shigella sonnei = test: MIC, broth micro dilution method; format: cell-based
H1975 cell line = test: Sulforhodamine B colorimetric (SRB) assay, H1975; conditions: Homo sapiens, NCI-H1975, 72 h
MCM complex (MCM2-MCM7) = test: Immunoblotting of MCM complex protein expression in H1975 cell lysates; format: cell-based, human
Method: To evaluate the effects of Compound 1 on modulating the expression of different MCM protein components, immunoblotting of DMSO or compound 1-treated (at 140 nM) H1975 cell lysates was performed. Exemplary results are shown in Panels (A)-(C) of FIG. 3. H1975 cell were treated with DMSO and compound 1 (140 nM). Compound 1-treated H1975 cells were harvested at 24 hours, 48 hours, and 72 hours, and the protein expression levels of MCM complex were analyzed by immunoblotting. […] (Panel (A) of FIG. 3.).
To evaluate the effects of Compound 1 on triggering MCM2, MCM6, and MCM7 degradation through transcriptional or post-translational regulation, compound 1-treated H1975 cells were harvested at 48 hours with or without 10 μM MG132 treatment for 12 hours; and the protein expression levels of MCM2/6/7 were examined by immunoblotting. […] It was observed that MG132 proteasome inhibitor may reverse the compound 1 effects on MCM2/6/7 protein expression levels.

Staphylococcus aureus = test: Bacterial growth by Alamar Blue in Muller-Hinton broth; format: cell-based
Method: as §1

Escherichia coli = test: as above; format: cell-based; conditions: 16-24 hours, read-out: % of the activities in the presence of ~10 μM compound, Escherichia coli
Method: as §1

[10] = strain NTUH-6767, methicillin-resistant

Cc1oc2c(c1C(=O)NCCCn1ccnc1)C(=O)c1ccccc1C2=O [Compound 1, N-(3-(1H-Imidazol-1-yl)propyl)-2-methyl-4,9-dioxo-4,9-dihydronaphtho [2,3-b]furan-3-carboxamide]
IC50 [1]: 0.053 µM | MIC ([2]; read-out: MIC (μg/ml) 100%): 4 µg/mL (≈ 11 µM) | MIC ([2]; read-out: MIC (μg/ml) 50%): 0.5 µg/mL (≈ 1.38 µM) | MIC (μg/ml) 50% [2, 10]: 0.5 µg/mL (≈ 1.38 µM) | MIC (μg/ml) 100% [2, 10]: 4 µg/mL (≈ 11 µM) | more time required for the S phase compared to DMSO (H1975 cells): approximately 4 hours | MIC ([3]; read-out: MIC (μg/ml) 100%, strain ATCC29970, methicillin-susceptible): 4 µg/mL (≈ 11 µM) | MIC ([3]; strain ATCC29970, methicillin-susceptible, read-out: MIC (μg/ml) 50%): 2 µg/mL (≈ 5.5 µM) | IC50 [4]: > 1 µM | viability at 10 µM [5]: 13.7% | viability at 10 µM [6]: 6% | viability at 10 µM [7]: 4.2% | MIC ([8]; read-out: MIC (μg/ml) 100%): 4 µg/mL (≈ 11 µM) | MIC ([8]; read-out: MIC (μg/ml) 50%): 2 µg/mL (≈ 5.5 µM) | IC50 [9]: 0.048 µM | chromatin-bound form of MCM2 vs DMSO control (MCM2): significantly reduced | MIC (Shigella sonnei; read-out: MIC (μg/ml) 100%, strain ATCC9290, gram negative): > 32 µg/mL | MIC (Shigella sonnei; strain ATCC9290, gram negative, read-out: MIC (μg/ml) 50%): > 32 µg/mL | IC50 (H1975 cell line; H1975, 72 h): 0.077 µM | IC50 (H1975 cell line; H1975 cell line, SRB assay, 72 hours): 0.077 to 0.247 µM | expression of MCM3, MCM4, or MCM5 (MCM complex (MCM2-MCM7); H1975, 140 nM, 24, 48, 72 hours): lower only at 72 hours | expression levels of MCM2, MCM6, and MCM7 (MCM complex (MCM2-MCM7); H1975, 140 nM, 24 hour and 72 hour): significantly decreased | MCM protein levels and messenger RNA levels (MCM complex (MCM2-MCM7); H1975, 24 hours): substantial decrease in MCM protein levels without a change in their messenger RNA levels | MIC (Staphylococcus aureus): 2 µg/mL (≈ 5.5 µM) | activity at 10 µM (Staphylococcus aureus; ~10 μM, 16-24 hours, Alamar Blue, read-out: % of the activities in the presence of ~10 μM compound, Staphylococcus aureus): 38.1% | activity at 10 µM (Escherichia coli): > 100%
